Results from ChEMBL document CHEMBL1201862, “PubChem BioAssay data set” (2004).
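96-well plates; 48 h exposure; 5 concentrations. Endpoints by linear interpolation between flanking doses. Not reached: highest tested concentration assigned. GI50: concentration for 50% inhibition of growth.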 Activity calls are given as the source filed them. Cut-off read from the data, not from the text of the source: active = GI50 up to about 1.1 µM and inactive = higher.

Assays:
Experiment in all cases: growth of human tumour cells (NCI), 48 h
MDA-MB-231 = tested on: MDA-MB-231
U-251 = tested on: U-251
NCI-H460 = tested on: NCI-H460
HCC 2998 = tested on: HCC 2998
786-0 = tested on: 786-0
SNB-19 = tested on: SNB-19
OVCAR-8 = tested on: OVCAR-8
HCT-116 = tested on: HCT-116
SNB-75 = tested on: SNB-75
MOLT-4 = tested on: MOLT-4
PC-3 = tested on: PC-3
TK-10 = tested on: TK-10
HOP-92 = tested on: HOP-92
ACHN = tested on: ACHN
HOP-62 = tested on: HOP-62
NCI-H23 = tested on: NCI-H23
UACC-257 = tested on: UACC-257
COLO 205 = tested on: COLO 205
T47D = tested on: T47D
A549 = tested on: A549

Measured: GI50

CCOC(=O)c1cnccc1CC1(C#N)c2ccccc2C=CN1C(=O)c1ccccc1 (stereo not given)
inactive: MDA-MB-231 25.5 µM | U-251 37.3 µM | NCI-H460 23.4 µM | HCC 2998 30.3 µM | 786-0 29.7 µM | SNB-19 70 µM | OVCAR-8 16.2 µM | HCT-116 29.2 µM | SNB-75 12.9 µM | MOLT-4 15.5 µM | PC-3 20.4 µM | TK-10 37.5 µM | HOP-92 37.5 µM | ACHN 39.4 µM | HOP-62 53.2 µM | NCI-H23 32.5 µM | UACC-257 34.7 µM | COLO 205 28.2 µM | T47D 24.4 µM | A549 34.4 µM

O=c1c2cc([N+](=O)[O-])cnc2sn1-c1ccc(Br)cc1
inactive: MDA-MB-231 28.3 µM | U-251 34.4 µM | NCI-H460 66.8 µM | HCC 2998 91 µM | 786-0 30.5 µM | SNB-19 38.8 µM | OVCAR-8 > 100 µM | HCT-116 19.5 µM | SNB-75 73.5 µM | MOLT-4 32.8 µM | PC-3 33.7 µM | TK-10 > 100 µM | HOP-92 23.8 µM | ACHN > 100 µM | HOP-62 36.1 µM | NCI-H23 29.6 µM | UACC-257 > 100 µM | COLO 205 47.2 µM | T47D 6.32 µM | A549 42.3 µM

COc1cc2c(NCCN(C)C)nc3c4cc5c(cc4ccc3c2cc1OC)OCO5
active: NCI-H460 0.193 µM | MOLT-4 0.242 µM | ACHN 0.745 µM
inactive: MDA-MB-231 5.13 µM | U-251 4.16 µM | HCC 2998 4.59 µM | 786-0 2.95 µM | SNB-19 3.56 µM | OVCAR-8 3.13 µM | HCT-116 3.3 µM | SNB-75 2.18 µM | PC-3 5.04 µM | TK-10 2.72 µM | HOP-92 4.82 µM | HOP-62 3.54 µM | NCI-H23 3.08 µM | UACC-257 4.1 µM | COLO 205 2.81 µM | T47D 6.15 µM | A549 2.75 µM

CC1(C=O)CCC23COC4(CCC5C6(C)CCC(OC7OCC(OC8OC(CO)C(O)C(OC9OC(CO)C(O)C(O)C9O)C8OC8OCC(O)C(O)C8O)C(O)C7OC7OC(CO)C(O)C(O)C7O)C(C)(C)C6CCC5(C)C4(C)CC2O)C3C1 (stereo not given)
inactive: U-251 2.34 µM | NCI-H460 1.29 µM | 786-0 1.2 µM | HCT-116 1.44 µM | SNB-75 1.26 µM | PC-3 1.38 µM | TK-10 1.89 µM | ACHN 1.3 µM | HOP-62 2.13 µM | NCI-H23 1.76 µM | UACC-257 1.75 µM | COLO 205 1.3 µM | T47D 1.61 µM | A549 1.63 µM
active: MDA-MB-231 0.32 µM | HCC 2998 1.01 µM | SNB-19 0.198 µM | OVCAR-8 0.365 µM | MOLT-4 0.367 µM | HOP-92 0.381 µM

O=C1c2ccccc2C(=O)N1n1c(Cc2ccccc2)n[nH]c1=O
inactive: MDA-MB-231 > 100 µM | U-251 > 100 µM | NCI-H460 > 100 µM | HCC 2998 > 100 µM | 786-0 > 100 µM | SNB-19 > 100 µM | OVCAR-8 > 100 µM | HCT-116 > 100 µM | SNB-75 > 100 µM | MOLT-4 > 100 µM | PC-3 > 100 µM | TK-10 > 100 µM | HOP-92 > 100 µM | ACHN > 100 µM | HOP-62 > 100 µM | NCI-H23 > 100 µM | UACC-257 > 100 µM | COLO 205 > 100 µM | T47D > 100 µM | A549 > 100 µM

Cc1c2c(C#N)nccc2c(C)c2c1c1ccccc1n2Cc1ccccc1
inactive: MDA-MB-231 > 100 µM | U-251 > 100 µM | NCI-H460 > 100 µM | HCC 2998 > 100 µM | 786-0 > 100 µM | SNB-19 > 100 µM | OVCAR-8 > 100 µM | HCT-116 > 100 µM | SNB-75 57.8 µM | MOLT-4 > 10 µM | PC-3 > 100 µM | TK-10 > 100 µM | HOP-92 77.8 µM | ACHN > 100 µM | HOP-62 > 100 µM | NCI-H23 > 100 µM | UACC-257 > 100 µM | COLO 205 > 100 µM | T47D 63.5 µM | A549 > 100 µM

CCCCCCCCCCCCCCCCOCC(CCl)OP(=O)(O)OP(=O)(O)OCC1OC(n2ccc(N)nc2=O)C(O)C1O (stereo not given)
inactive: MDA-MB-231 > 100 µM | U-251 > 100 µM | NCI-H460 > 100 µM | HCC 2998 > 100 µM | 786-0 > 100 µM | SNB-19 > 100 µM | OVCAR-8 > 100 µM | HCT-116 > 100 µM | SNB-75 6.07 µM | MOLT-4 > 100 µM | PC-3 87.7 µM | TK-10 > 100 µM | HOP-92 > 100 µM | ACHN > 100 µM | HOP-62 > 100 µM | NCI-H23 > 100 µM | UACC-257 > 100 µM | COLO 205 > 100 µM | T47D > 100 µM | A549 > 100 µM

O=c1c2cc([N+](=O)[O-])ccc2n2n1CCCC2
inactive: MDA-MB-231 > 100 µM | U-251 > 100 µM | NCI-H460 > 100 µM | HCC 2998 > 100 µM | 786-0 > 100 µM | SNB-19 > 100 µM | OVCAR-8 > 100 µM | HCT-116 > 100 µM | SNB-75 > 100 µM | MOLT-4 > 100 µM | PC-3 > 100 µM | TK-10 24.2 µM | HOP-92 > 100 µM | ACHN > 100 µM | HOP-62 > 100 µM | NCI-H23 > 100 µM | UACC-257 > 100 µM | COLO 205 > 100 µM | T47D > 100 µM | A549 > 100 µM

Cc1[nH]c2ncn3[nH]c(=S)nc3c2c1Cc1ccccc1
inactive: MDA-MB-231 > 100 µM | U-251 > 100 µM | NCI-H460 > 100 µM | HCC 2998 92.5 µM | 786-0 > 100 µM | SNB-19 > 100 µM | OVCAR-8 > 100 µM | HCT-116 > 100 µM | SNB-75 25.2 µM | MOLT-4 > 100 µM | PC-3 > 100 µM | TK-10 > 100 µM | HOP-92 > 100 µM | ACHN > 100 µM | HOP-62 > 100 µM | NCI-H23 > 100 µM | UACC-257 > 100 µM | COLO 205 > 100 µM | T47D 28.8 µM | A549 > 100 µM

CC(C)(C)n1nc(C2CC2)cc1NC(=O)Nc1ccc(Cl)cc1
inactive: MDA-MB-231 > 100 µM | U-251 > 100 µM | NCI-H460 > 100 µM | HCC 2998 > 100 µM | 786-0 > 100 µM | SNB-19 > 100 µM | OVCAR-8 > 100 µM | HCT-116 > 100 µM | SNB-75 78 µM | MOLT-4 > 100 µM | PC-3 > 100 µM | TK-10 > 100 µM | HOP-92 > 100 µM | ACHN > 100 µM | HOP-62 > 100 µM | NCI-H23 > 100 µM | UACC-257 > 100 µM | COLO 205 > 100 µM | T47D > 100 µM | A549 > 100 µM

CC(=O)N1CCN(C23OC4(N5CCN(C(C)=O)CC5)C5C6CC(C7C6C4C72)C53)CC1 (stereo not given)
inactive: MDA-MB-231 > 100 µM | U-251 > 100 µM | NCI-H460 > 100 µM | HCC 2998 > 100 µM | 786-0 > 100 µM | SNB-19 > 100 µM | OVCAR-8 > 100 µM | HCT-116 > 100 µM | SNB-75 > 100 µM | MOLT-4 > 100 µM | PC-3 > 100 µM | TK-10 > 100 µM | HOP-92 > 100 µM | ACHN > 100 µM | HOP-62 > 100 µM | NCI-H23 > 100 µM | UACC-257 > 100 µM | COLO 205 > 100 µM | T47D > 100 µM | A549 > 100 µM

CCOC1CN=C(Nc2cccc3ccccc23)S1 (stereo not given)
inactive: MDA-MB-231 > 10 µM | U-251 > 10 µM | NCI-H460 > 10 µM | HCC 2998 > 10 µM | 786-0 > 10 µM | SNB-19 > 10 µM | OVCAR-8 > 10 µM | HCT-116 > 10 µM | SNB-75 > 10 µM | MOLT-4 > 10 µM | PC-3 > 10 µM | TK-10 > 10 µM | HOP-92 > 10 µM | ACHN > 10 µM | HOP-62 > 10 µM | NCI-H23 > 10 µM | UACC-257 > 10 µM | COLO 205 > 10 µM | T47D > 10 µM | A549 > 10 µM

COc1cc(-c2oc3c(OC)c(O)cc(O)c3c(=O)c2OC)ccc1O
inactive: MDA-MB-231 7.76 µM | U-251 3.66 µM | NCI-H460 6.95 µM | HCC 2998 10.9 µM | 786-0 16.9 µM | SNB-19 41.4 µM | OVCAR-8 8.17 µM | HCT-116 6.4 µM | SNB-75 4.02 µM | MOLT-4 4.92 µM | PC-3 6.44 µM | TK-10 12.4 µM | HOP-92 3.83 µM | ACHN 3.99 µM | HOP-62 3 µM | NCI-H23 16.7 µM | UACC-257 26 µM | COLO 205 29.1 µM | T47D 2.38 µM | A549 7.29 µM

c1ccc2c(Nc3ncco3)cccc2c1
inactive: MDA-MB-231 > 10 µM | U-251 > 10 µM | NCI-H460 > 10 µM | HCC 2998 > 10 µM | 786-0 > 10 µM | SNB-19 > 10 µM | OVCAR-8 > 10 µM | HCT-116 > 10 µM | SNB-75 > 10 µM | MOLT-4 > 10 µM | PC-3 > 10 µM | TK-10 > 10 µM | HOP-92 > 10 µM | ACHN > 10 µM | HOP-62 > 10 µM | NCI-H23 > 10 µM | UACC-257 > 10 µM | COLO 205 > 10 µM | T47D > 10 µM | A549 > 10 µM
